Assay results from PubChem BioAssay AID264 (DTP/NCI, 2004).
Several values for one entry are separate records, joined by “and”; a condition that tells them apart may be missing. Identical values can stand only once. Records with an inconclusive call do not appear.

Tested on: nude mice, LX-1 lung xenograft intrarenal, tumor weight T/C
Assay: NCI In Vivo Anticancer Drug Screen. Data for tumor model Human Lung LX-1 Xenograft (intrarenal inoculation) in NU/NU Swiss (nude) mice
Details: endpoint: mean tumor weight change, higher = larger tumour
Method in brief: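 Activity was scored by measuring tumors in treated animals and in vehicle controls, then reporting the treated result as a fraction of the control result.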

With `COc1cc2cc3cc4cc(OC)c(OC)cc4c(C)[n+]3cc2cc1OC` (tested in a mixture with another compound) the T/C (dose: 300.0 mg/kg/injection, schedule: Q04DX003 (sc), vehicle: suspension in saline) was 105 % of control, the T/C (dose: 600.0 mg/kg/injection, schedule: Q04DX003 (sc), vehicle: suspension in saline) was 71 % of control and the T/C (dose: 1200.0 mg/kg/injection, schedule: Q04DX003 (sc), vehicle: suspension in saline) was 71 % of control. For the same compound, the T/C (dose: 2400.0 mg/kg/injection, schedule: Q04DX003 (sc), vehicle: suspension in saline) was 53 % of control.

In the case of `COc1ccc(OC)c(Cc2cnc3nc(N)nc(N)c3c2C)c1`, the T/C (dose: 75.0 mg/kg/injection, schedule: Q04DX003 (sc), vehicle: water) is reported as 82 % of control, the T/C (dose: 150.0 mg/kg/injection, schedule: Q04DX003 (sc), vehicle: water) is reported as 80 % of control and the T/C (dose: 300.0 mg/kg/injection, schedule: Q04DX003 (sc), vehicle: water) is reported as 94 % of control. The T/C (dose: 600.0 mg/kg/injection, schedule: Q04DX003 (sc), vehicle: water) was 94 % of control.

For `COc1ccc2nc3cc(Cl)ccc3c(NCCNCCNCCNc3c4ccc(Cl)cc4nc4ccc(OC)cc34)c2c1`, the T/C (dose: 12.5 mg/kg/injection, schedule: Q01DX010 (sc), vehicle: saline with Tween-80) was 81 % of control, the T/C (dose: 50.0 mg/kg/injection, schedule: Q01DX010 (sc), vehicle: saline with Tween-80) was 106 % of control and the T/C (dose: 200.0 mg/kg/injection, schedule: Q01DX010 (sc), vehicle: saline with Tween-80) was 70 % of control. For the same compound, the T/C (dose: 400.0 mg/kg/injection, schedule: Q01DX010 (sc), vehicle: saline with Tween-80) was 46 % of control.

For `CCN1/C(=C/C(C)=C/c2sc3ccc4ccccc4c3[n+]2CC)Sc2ccc3ccccc3c21`, the T/C (dose: 0.75 mg/kg/injection, schedule: Q04DX003 (sc), vehicle: Klucel (hydroxypropylcellulose) (HPC)) was 67 % of control, the T/C (dose: 1.5 mg/kg/injection, schedule: Q04DX003 (sc), vehicle: Klucel (hydroxypropylcellulose) (HPC)) was 112 % of control and the T/C (dose: 3.0 mg/kg/injection, schedule: Q04DX003 (sc), vehicle: Klucel (hydroxypropylcellulose) (HPC)) was 76 % of control. For the same compound, the T/C (dose: 6.0 mg/kg/injection, schedule: Q04DX003 (sc), vehicle: Klucel (hydroxypropylcellulose) (HPC)) was 96 % of control, the T/C (dose: 12.0 mg/kg/injection, schedule: Q04DX003 (sc), vehicle: Klucel (hydroxypropylcellulose) (HPC)) was 112 % of control and the T/C (dose: 48.0 mg/kg/injection, schedule: Q04DX003 (sc), vehicle: Klucel (hydroxypropylcellulose) (HPC)) was 81 % of control and 92 % of control.

For `CN(Cc1cnc2nc(N)nc(N)c2n1)c1c(Cl)cc(C(=O)NC(CCC(=O)O)C(=O)O)cc1Cl` (centres undefined), the T/C (dose: 12.5 mg/kg/injection, schedule: Q01DX010 (sc), vehicle: Klucel (hydroxypropylcellulose) (HPC)) was 73 % of control, the T/C (dose: 25.0 mg/kg/injection, schedule: Q01DX010 (sc), vehicle: Klucel (hydroxypropylcellulose) (HPC)) was 48 % of control and the T/C (dose: 50.0 mg/kg/injection, schedule: Q01DX010 (sc), vehicle: Klucel (hydroxypropylcellulose) (HPC)) was 45 % of control.

In the case of `CCOC(=O)NC1=C(N2CC2)C(=O)C(NC(=O)OCC)=C(N2CC2)C1=O`, the T/C (dose: 0.78 mg/kg/injection, schedule: Q01DX010 (sc), vehicle: saline) is reported as 67 % of control, the T/C (dose: 1.56 mg/kg/injection, schedule: Q01DX010 (sc), vehicle: saline) is reported as 74 % of control and the T/C (dose: 1.56 mg/kg/injection, schedule: Q01DX010 (sc), vehicle: suspension in saline) is reported as 56 % of control. For the same compound, the T/C (dose: 3.12 mg/kg/injection, schedule: Q04DX003 (sc), vehicle: suspension in saline) was 77 % of control, the T/C (dose: 3.13 mg/kg/injection, schedule: Q01DX010 (sc), vehicle: saline) was 81 % of control and the T/C (dose: 3.13 mg/kg/injection, schedule: Q01DX010 (sc), vehicle: suspension in saline) was 89 % of control. The T/C (dose: 3.13 mg/kg/injection, schedule: Q04DX003 (ip), vehicle: saline) was 64 % of control, the T/C (dose: 6.25 mg/kg/injection, schedule: Q01DX010 (sc), vehicle: saline) was 35 % of control and the T/C (dose: 6.25 mg/kg/injection, schedule: Q04DX003 (ip), vehicle: saline) was 96 % of control. For the same compound, the T/C (dose: 6.25 mg/kg/injection, schedule: Q04DX003 (sc), vehicle: saline) was 75 % of control, the T/C (dose: 6.25 mg/kg/injection, schedule: Q04DX003 (sc), vehicle: suspension in saline) was 65 % of control and the T/C (dose: 12.5 mg/kg/injection, schedule: Q04DX003 (ip), vehicle: saline) was 34 % of control. For the same compound, the T/C (dose: 12.5 mg/kg/injection, schedule: Q04DX003 (sc), vehicle: saline) was 71 % of control and the T/C (dose: 25.0 mg/kg/injection, schedule: Q04DX003 (ip), vehicle: saline) was 9 % of control.

In the case of `CCOC(=O)C1(c2ccccc2)C(=O)Oc2ccccc21` (centres undefined), the T/C (dose: 300.0 mg/kg/injection, schedule: Q04DX003 (sc), vehicle: saline with Tween-80) is reported as 54 % of control, the T/C (dose: 600.0 mg/kg/injection, schedule: Q04DX003 (sc), vehicle: saline with Tween-80) is reported as 103 % of control and the T/C (dose: 1200.0 mg/kg/injection, schedule: Q04DX003 (sc), vehicle: saline with Tween-80) is reported as 73 % of control. For the same compound, the T/C (dose: 2400.0 mg/kg/injection, schedule: Q04DX003 (sc), vehicle: saline with Tween-80) was 74 % of control.
